Measurements as given in patent US20250197671A1, “IRRADIATION-CROSSLINKABLE SILICONE COMPOSITION COMPRISING PT(OCTANE-2,4-DIONE)2 AS A CATALYST” (ELKEM SILICONES FRANCE SAS, priority 2022, published 2025).
Read-outs that look alike come from different tables or passages of the source.

Columns and labels:
[1] = H361-CMR Reproductive Toxicity Category 2; cited from earlier work
[2] = Photo-DSC of silicone composition (time and value of thermal peak); details: 365 nm, 14.4 mW/cm^2, 10 ppm Pt, N2 purge
[3] = Solubility of the catalyst in hexamethyldisiloxane (HMDSO); format: physicochemical
From the text: Continue additions until obtaining a clear medium, without observing precipitate at the end of stirring.

[4] = Solubility / appearance of catalyst in the silicone composition; details: Photo-DSC formulation, organopolysiloxane A + B, 10 ppm Pt (Example 3)
[5] = Crosslinking time of silicone composition under UV LED irradiation (catalyst activity); details: UV LED 365 nm, 10 ppm Pt, SiH/Si(vinyl)=2:1, bulk setting time
Description: Irradiation: UV LED lamp with a wavelength of 365 nm.
The crosslinking time is measured. It corresponds to the bulk setting time of the system (the bar magnet can no longer stir the system).

[6] = system: Salmonella typhimurium TA 1535, TA 1537, TA 98, TA 100; test: Ames test (OECD test 471, Bacterial Reverse Mutation Test); format: cell-based; details: with or without metabolic activation; 5000, 1500, 150 and 50 μg/plate
Description: (§1) In fact, this compound was analyzed according to the Ames test: the Ames test is a widely used method which uses bacteria for verifying whether a given chemical product may cause DNA mutations in the tested organism.
(§2) Toxicity test (Ames Test, according to the OECD guidelines for chemical product tests-test 471: Bacterial Reverse Mutation Test): Solutions were prepared with Pt(octane-2,4-dione)2.

[7] = system: Escherichia coli WP2 (uvrA-) (pKM 101); test: as above; format: cell-based; details: with or without metabolic activation; 5000, 1500, 150 and 50 μg/plate
Description: as §1, §2

[8] = Stability of the catalysed silicone solution without irradiation; format: physicochemical; details: with organopolysiloxanes A and B, 10 ppm Pt
Description: A solution comprising a catalyst C1 or C5, together with organopolysiloxanes A and B was prepared according to example 2 (concentration in metal Pt of 10 ppm).
The stability of the solutions was then determined.

Compound | Time to arrive at the thermal peak [2] | Value of the thermal peak (mW/s) [2] | Appearance [4] | other results
CC(=O)/C=C(/C)O.CC(=O)/C=C(/C)O.[Pt] [Catalyst C2, Pt(acac)2] | 140 s | 0.65 mW/s |  | reproductive toxicity classification [1]: suspected of damaging fertility or the unborn child
CCC(=O)C=C(CC)[O][Pt][O]C(=CC(=O)CC)CC [Catalyst C3, Pt(heptane-3,5-dione)2] | 240 s | 0.53 mW/s | Clear yellow | Solubility [3]: 2500 ppm Pt
CCC(=O)C=C(C)[O][Pt][O]C(C)=CC(=O)CC [Catalyst C4, Pt(hexane-2,4-dione)2] | 235 s | 0.47 mW/s | Hazy yellow | Solubility ([3]; in hexamethyldisiloxane (HMDSO) at 20° C.): 500 ppm Pt
Pt(octane-2,4-dione)2 [C1 Trans:cis ratio = 11:89] |  |  |  | Crosslinking time [5]: 1 min
Pt(octane-2,4-dione)2 [Catalyst C1] |  |  |  | Solubility [3]: 7000 ppm Pt; mutagenic modification (Ames test) [6]: did not induce any mutagenic modification; mutagenic modification (Ames test) [7]: did not induce any mutagenic modification; time solution remained stable ([8]; exposed to ambient light): over 7 hours; time solution remained stable ([8]; protected from light): over 20 days
cis-Pt(octane-2,4-dione)2 [C1 Cis] | 140 s | 0.85 mW/s | Soluble clear | 
trans Pt(octane-2,4-dione)2 [C1 Trans] | 140 s | 0.78 mW/s | Soluble clear | 
